Our source for the IC50 values is patent publication US10435402B2, “Bicyclic compounds, compositions and medicinal applications thereof” (Advinus Therapeutics Limited, priority 2015, dated 2019).

By IC50 is commonly meant the point on the concentration scale where inhibition reaches its midpoint. The low end stands for inhibition by little substance, the high end for a need for much substance.

The target of this experiment is T1, GAL4-DBD/RORγ-LBD (Homo sapiens, UniProt P51449).
T1 construct: expressed in transfected cells; host or cells: HEK293T
T1 sequence (P51449 269-508 limits assumed): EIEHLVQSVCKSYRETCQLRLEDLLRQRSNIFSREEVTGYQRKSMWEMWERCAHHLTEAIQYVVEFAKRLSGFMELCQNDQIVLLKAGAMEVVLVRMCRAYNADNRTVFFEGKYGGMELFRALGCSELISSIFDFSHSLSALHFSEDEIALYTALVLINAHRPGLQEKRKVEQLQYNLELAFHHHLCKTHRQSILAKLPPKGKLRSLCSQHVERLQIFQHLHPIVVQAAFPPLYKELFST
T1 sequence (P04386 1-147 partner limits assumed): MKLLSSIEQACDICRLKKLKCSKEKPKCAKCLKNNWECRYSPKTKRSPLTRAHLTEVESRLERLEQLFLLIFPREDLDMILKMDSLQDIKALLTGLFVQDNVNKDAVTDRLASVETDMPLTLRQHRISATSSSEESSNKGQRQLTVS
Nature of the experiment: RORγt transactivation reporter assay (GAL4-DBD/RORγ-LBD, luciferase read out). In kind it is cell-based. As to conditions: HEK293T cells, GAL4-UAS luciferase reporter, overnight (18-24 hours) incubation. The procedure, abridged: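 HEK293T cells were transiently co-transfected with GAL4-DBD/RORγt-LBD (SV40-Renilla transfection control) and a 9×GAL4-UAS firefly Luc2P reporter. Compounds (0.4% DMSO in the compound solution) were added 5 h post-transfection in FBS-free DMEM for 18–24 h at 37 °C. IC50 was taken from the normalised Dual-Glo luciferase signal.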
A general note: In a reporter assay the amount or activity of a reporter protein is the signal.
Regarding `O=C(O)c1ccc(-c2c(F)c(C(=O)c3c(Cl)ccc(F)c3Cl)n3ccccc23)cc1` [Example B-6, 4-[3-(2,6-dichloro-3-fluoro-benzoyl)-2-fluoro-indolizin-1-yl]benzoic acid], the IC50 is below 500 nM.
The same measure for `Cc1c(-c2ccc(C(=O)O)cc2F)c2ccccn2c1C(=O)c1c(Cl)cccc1Cl` [Example C-2, 4-[3-(2,6-dichlorobenzoyl)-2-methyl-indolizin-1-yl]-3-fluoro-benzoic acid]: below 500 nM; for `O=C(O)c1ccc(-c2cc(C(=O)c3c(F)cccc3Cl)n3ccccc23)c(F)c1` [Example A-27, 4-[3-(2-chloro-6-fluoro-benzoyl)indolizin-1-yl]-3-fluoro-benzoic acid]: below 500 nM.
As to `COC(=O)c1ccc(-c2cc(C(=O)c3c(C)cccc3Cl)n3ccccc23)c(F)c1` [Example A-13, methyl 4-[3-(2-chloro-6-methyl-benzoyl)indolizin-1-yl]-3-fluoro-benzoate], the IC50 was below 500 nM.
With “ethyl 4-[3-(2-chloro-6-fluoro-benzoyl)-8-fluoro-indolizin-1-yl]-3-fluoro-benzoate [Example A-33]”, the IC50 was below 500 nM.
Consider `O=C(O)c1ccc(-c2cc(C(=O)c3c(Cl)cccc3Br)n3ccccc23)cc1` [Example A-50, 4-[3-(2-bromo-6-chloro-benzoyl)indolizin-1-yl]benzoic acid], for which the IC50 was below 5000 nM.
The compound `Cc1cccc(Cl)c1C(=O)c1cc(-c2ccc(C(=O)O)cc2F)c2ccccn12` [Example A-15, 4-[3-(2-chloro-6-methyl-benzoyl)indolizin-1-yl]-3-fluoro-benzoic acid] returned an IC50 below 500 nM.
Consider `CCOC(=O)c1ccc(-c2cc(C(=O)c3c(Cl)cccc3C3CC3)n3ccccc23)c(F)c1` [Example A-30, ethyl 4-[3-(2-chloro-6-cyclopropyl-benzoyl)indolizin-1-yl]-3-fluoro-benzoate], for which the IC50 was below 500 nM.
Compound `O=C(O)c1ccc(-c2cc(C(=O)c3c(F)cccc3F)n3cccc(F)c23)c(F)c1` [Example A-48, 4-[3-(2,6-difluorobenzoyl)-8-fluoro-indolizin-1-yl]-3-fluoro-benzoic acid] displayed an IC50 below 500 nM.
The result for `COCCNC(=O)c1ccc2c(-c3ccc(C(=O)O)cc3)cc(C(=O)c3c(Cl)cccc3Cl)n2c1` [Example D-8, 4-[3-(2,6-dichlorobenzoyl)-6-(2-methoxyethylcarbamoyl)indolizin-1-yl]benzoic acid] reads above 5000 nM; that for `CCOC(=O)c1ccc(-c2c(F)c(C(=O)c3c(Cl)cccc3Cl)n3ccccc23)cc1` [Example B-1, Ethyl 4-[3-(2,6-dichlorobenzoyl)-2-fluoro-indolizin-1-yl]benzoate], below 500 nM; that for `CCOC(=O)c1ccc(-c2cc(C(=O)c3c(F)cccc3F)n3ccccc23)cc1` [Example A-36, ethyl 4-[3-(2,6-difluorobenzoyl)indolizin-1-yl]benzoate], below 500 nM.
For `COC(=O)c1ccc(-c2cc(C(=O)c3c(F)cccc3F)n3ccccc23)c(F)c1` [Example A-5, methyl 4-[3-(2,6-difluorobenzoyl)indolizin-1-yl]-3-fluoro-benzoate], the IC50 is below 500 nM.
